Experimental data: ChEMBL document CHEMBL3751769, “Design, synthesis, and evaluation of semi-conservative mono-carbonyl analogs of curcumin as anti-inflammatory agents against lipopolysaccharide-induced acute lung injury” (Medchemcomm, 2015)
Activity calls are given as the source filed them. The calls are words filed in the database; no cut-off is given here.

Test system: RAW264.7
Assay: Anti-inflammatory activity in mouse RAW264.7 cells assessed as inhibition of IL-6 production at 10 uM preincubated for 30 mins followed by 0.5 ug/ml LPS addition after 24 hrs by ELISA
Assay type: functional
Conditions: not given

SMILES | inhibition | inhibition (INH)
COc1cc(/C=C2\CC/C(=C\c3cc4c(cc3Br)OCO4)C2=O)ccc1O | Active | –
COc1cc(/C=C2\CCC/C(=C\c3ccc4ccccc4c3)C2=O)ccc1O | Active | –
COc1cc(/C=C2\CCC/C(=C\c3ccc(Cl)c([N+](=O)[O-])c3)C2=O)ccc1O | Active | –
COc1cc(/C=C2\CCC/C(=C\c3ccc(O)c(Br)c3)C2=O)ccc1O | – | >50%
COc1cc(/C=C2\CC/C(=C\c3c[nH]c4ncccc34)C2=O)ccc1O | Active | –
COc1cc(/C=C2\CCC/C(=C\c3cc(OC)c(OC)c(OC)c3)C2=O)ccc1O | Active | –
COc1cc(/C=C2\CCC/C(=C\c3ccc(F)c(F)c3)C2=O)ccc1O | Active | –
COc1cc(/C=C2\CCC/C(=C\c3ccccc3OC)C2=O)ccc1O | Active | –
COc1cc(/C=C2\CCC/C(=C\c3ccc(O)c(O)c3)C2=O)ccc1O | Active | –
COc1cc(/C=C2\CCC/C(=C\c3ccccc3F)C2=O)ccc1O | Active | –
CCOc1ccc(Br)cc1/C=C1\CCC/C(=C\c2ccc(O)c(OC)c2)C1=O | Active | –
COc1cc(/C=C2\CC/C(=C\c3cc(C)ccc3C)C2=O)ccc1O | – | >50%
COc1ccc(/C=C2\CC/C(=C\c3ccc(O)c(OC)c3)C2=O)c(F)c1 | Active | –
COc1cc(/C=C2\CCC/C(=C\c3ccc(Cl)cc3)C2=O)ccc1O | Active | –
COc1cc(/C=C2\CCC/C(=C\c3cccc(OC)c3O)C2=O)ccc1O | Active | –
COc1ccc(/C=C2\CCC/C(=C\c3ccc(O)c(OC)c3)C2=O)c(OC)c1 | Active | –
COc1cc(/C=C2\CCC/C(=C\c3cc(F)ccc3F)C2=O)ccc1O | Active | –
COc1ccc(/C=C2\CCC/C(=C\c3ccc(O)c(OC)c3)C2=O)cc1 | Active | –
COc1ccc(OC)c(/C=C2\CCC/C(=C\c3ccc(O)c(OC)c3)C2=O)c1 | Active | –

Test system: RAW264.7
Assay: Anti-inflammatory activity in mouse RAW264.7 cells assessed as inhibition of IL-6 production preincubated for 30 mins followed by 0.5 ug/ml LPS addition after 24 hrs by ELISA
Assay type: functional, cell-based
Conditions: not given

SMILES | inhibition
COc1cc(/C=C2\CCC/C(=C\c3ccc(O)c(Br)c3)C2=O)ccc1O | Dose-dependent effect
COc1cc(/C=C2\CC/C(=C\c3cc(C)ccc3C)C2=O)ccc1O | Dose-dependent effect

Test system: RAW264.7
Assay: Anti-inflammatory activity in mouse RAW264.7 cells assessed as inhibition of TNFalpha production at 10 uM preincubated for 30 mins followed by 0.5 ug/ml LPS addition after 24 hrs by ELISA
Assay type: functional
Conditions: not given

SMILES | inhibition | inhibition (INH)
COc1cc(/C=C2\CC/C(=C\c3cc4c(cc3Br)OCO4)C2=O)ccc1O | Active | –
COc1cc(/C=C2\CCC/C(=C\c3ccc4ccccc4c3)C2=O)ccc1O | Active | –
COc1cc(/C=C2\CCC/C(=C\c3ccc(Cl)c([N+](=O)[O-])c3)C2=O)ccc1O | Active | –
COc1cc(/C=C2\CCC/C(=C\c3ccc(O)c(Br)c3)C2=O)ccc1O | – | >50%
COc1cc(/C=C2\CC/C(=C\c3c[nH]c4ncccc34)C2=O)ccc1O | Active | –
COc1cc(/C=C2\CCC/C(=C\c3cc(OC)c(OC)c(OC)c3)C2=O)ccc1O | Active | –
COc1cc(/C=C2\CCC/C(=C\c3ccc(F)c(F)c3)C2=O)ccc1O | Active | –
COc1cc(/C=C2\CCC/C(=C\c3ccccc3OC)C2=O)ccc1O | Active | –
COc1cc(/C=C2\CCC/C(=C\c3ccc(O)c(O)c3)C2=O)ccc1O | Active | –
COc1cc(/C=C2\CCC/C(=C\c3ccccc3F)C2=O)ccc1O | Active | –
CCOc1ccc(Br)cc1/C=C1\CCC/C(=C\c2ccc(O)c(OC)c2)C1=O | Active | –
COc1cc(/C=C2\CC/C(=C\c3cc(C)ccc3C)C2=O)ccc1O | – | >50%
COc1ccc(/C=C2\CC/C(=C\c3ccc(O)c(OC)c3)C2=O)c(F)c1 | Active | –
COc1cc(/C=C2\CCC/C(=C\c3ccc(Cl)cc3)C2=O)ccc1O | Active | –
COc1cc(/C=C2\CCC/C(=C\c3cccc(OC)c3O)C2=O)ccc1O | Active | –
COc1ccc(/C=C2\CCC/C(=C\c3ccc(O)c(OC)c3)C2=O)c(OC)c1 | Active | –
COc1cc(/C=C2\CCC/C(=C\c3cc(F)ccc3F)C2=O)ccc1O | Active | –
COc1ccc(/C=C2\CCC/C(=C\c3ccc(O)c(OC)c3)C2=O)cc1 | Active | –
COc1ccc(OC)c(/C=C2\CCC/C(=C\c3ccc(O)c(OC)c3)C2=O)c1 | Active | –

Test system: RAW264.7
Assay: Anti-inflammatory activity in mouse RAW264.7 cells assessed as inhibition of TNFalpha production preincubated for 30 mins followed by 0.5 ug/ml LPS addition after 24 hrs by ELISA
Assay type: functional, cell-based
Conditions: not given

SMILES | inhibition
COc1cc(/C=C2\CCC/C(=C\c3ccc(O)c(Br)c3)C2=O)ccc1O | Dose-dependent effect
COc1cc(/C=C2\CC/C(=C\c3cc(C)ccc3C)C2=O)ccc1O | Dose-dependent effect

Test system: not listed separately
Assay: Cytotoxicity against human HL-7702 cells assessed as cell viability at 10 uM after 24 hrs by MTT assay
Assay type: cell-based
Conditions: l02, 24 h

SMILES | Activity
COc1cc(/C=C2\CC/C(=C\c3cc4c(cc3Br)OCO4)C2=O)ccc1O | Non-toxic
COc1cc(/C=C2\CCC/C(=C\c3ccc4ccccc4c3)C2=O)ccc1O | Non-toxic
COc1cc(/C=C2\CCC/C(=C\c3ccc(Cl)c([N+](=O)[O-])c3)C2=O)ccc1O | Non-toxic
COc1cc(/C=C2\CCC/C(=C\c3ccc(O)c(Br)c3)C2=O)ccc1O | Non-toxic
COc1cc(/C=C2\CC/C(=C\c3c[nH]c4ncccc34)C2=O)ccc1O | Non-toxic
COc1cc(/C=C2\CCC/C(=C\c3cc(OC)c(OC)c(OC)c3)C2=O)ccc1O | Non-toxic
COc1cc(/C=C2\CCC/C(=C\c3ccc(F)c(F)c3)C2=O)ccc1O | Non-toxic
COc1cc(/C=C2\CCC/C(=C\c3ccccc3OC)C2=O)ccc1O | Non-toxic
COc1cc(/C=C2\CCC/C(=C\c3ccc(O)c(O)c3)C2=O)ccc1O | Non-toxic
COc1cc(/C=C2\CCC/C(=C\c3ccccc3F)C2=O)ccc1O | Non-toxic
CCOc1ccc(Br)cc1/C=C1\CCC/C(=C\c2ccc(O)c(OC)c2)C1=O | Non-toxic
COc1cc(/C=C2\CC/C(=C\c3cc(C)ccc3C)C2=O)ccc1O | Non-toxic
COc1ccc(/C=C2\CC/C(=C\c3ccc(O)c(OC)c3)C2=O)c(F)c1 | Non-toxic
COc1cc(/C=C2\CCC/C(=C\c3ccc(Cl)cc3)C2=O)ccc1O | Non-toxic
COc1cc(/C=C2\CCC/C(=C\c3cccc(OC)c3O)C2=O)ccc1O | Non-toxic
COc1ccc(/C=C2\CCC/C(=C\c3ccc(O)c(OC)c3)C2=O)c(OC)c1 | Non-toxic
COc1cc(/C=C2\CCC/C(=C\c3cc(F)ccc3F)C2=O)ccc1O | Non-toxic
COc1ccc(/C=C2\CCC/C(=C\c3ccc(O)c(OC)c3)C2=O)cc1 | Non-toxic
COc1ccc(OC)c(/C=C2\CCC/C(=C\c3ccc(O)c(OC)c3)C2=O)c1 | Non-toxic
